From patent US9125828B2, “MOC compositions” (Givaudan SA, priority 2010, dated 2015)

Tested on: axillary malodour
Assay: Deodorancy of pro-perfumes compared with their breakdown products
Assay type: in vivo
Conditions: pro perfumes that undergo scission when exposed to UV light; no data given
Source text: The effectiveness of compositions of the present invention comprising 2-Ethoxy-4-formylphenyl (E)-3-(2-hydroxyphenyl) acrylate and/or (E)-Dec-9-enyl 3-(2-hydroxyphenyl) acrylate, two group A materials, in axillary malodour counteracting deodorant is particularly surprising. These materials are pro perfumes that undergo scission into other compounds when exposed to UV light, this is disclosed in EP 936211. The use of materials that require light activation is counter-intuitive for application in underarm products such as deodorants and antiperspirants.

SMILES	deodorancy relative to breakdown products
CCOc1cc(C=O)ccc1OC(=O)/C=C/c1ccccc1O [2-Ethoxy-4-formylphenyl (E)-3-(2-hydroxyphenyl)acrylate]	better deodorancy than their breakdown products
C=CCCCCCCCCOC(=O)/C=C/c1ccccc1O [(E)-Dec-9-enyl 3-(2-hydroxyphenyl)acrylate]	better deodorancy than their breakdown products
